Like-named read-outs stand apart in the source and are kept apart here. Peptide text beside a SMILES is read from it.
Tested on: M. mycetomatis genome strain MM55
Experiment: CLSI M38-A2 based in vitro susceptibility screening (XTT or resazurin), growth at fixed concentration
Type: cell-based, Madurella mycetomatis
Conditions: for activity at 25 µM / activity at 100 µM / Percent fungal survival at 100 µM: Madurella mycetomatis; for Percent fungal survival at 100 µM: read-out: Percentage survival at 100um, 100 uM A (second replicate column)
[1] = 25 uM, mean of three, M. mycetomatis MM55, read-out: Percentage survival at 25um, 25 uM mean
[2] = 25 uM, replicate A, M. mycetomatis MM55, read-out: Percentage survival at 25um, 25 um A
[3] = 25 uM, replicate B, M. mycetomatis MM55, read-out: Percentage survival at 25um, 25 uM B
[4] = 25 uM, replicate C, M. mycetomatis MM55, read-out: Percentage survival at 25um, 25 uM C
[5] = 100 uM, mean of three, M. mycetomatis MM55, read-out: Percentage survival at 100um, 100 uM mean
[6] = 100 uM, replicate 1, M. mycetomatis MM55, read-out: Percentage survival at 100um, 100 uM A (first replicate column)
[7] = 100 uM, replicate 2, M. mycetomatis MM55
[8] = 100 uM, replicate 3, M. mycetomatis MM55, read-out: Percentage survival at 100um, 100 uM A (third replicate column)
[9] = 25 uM, mean, read-out: Percentage survival at 25um, 25 uM mean
[10] = 25 uM, replicate A, read-out: Percentage survival at 25um, 25 um A
[11] = 25 uM, replicate B, read-out: Percentage survival at 25um, 25 uM B
[12] = 25 uM, replicate C, read-out: Percentage survival at 25um, 25 uM C
[13] = 100 uM, mean, read-out: Percentage survival at 100um, 100 uM mean
[14] = 100 uM, replicate (first column), read-out: Percentage survival at 100um, 100 uM A
[15] = 100 uM, replicate (second column), read-out: Percentage survival at 100um, 100 uM A
[16] = 100 uM, replicate (third column), read-out: Percentage survival at 100um, 100 uM A
[17] = 25 uM, mean of three replicates, read-out: Percentage survival at 25um, 25 uM mean
[18] = 100 uM, first replicate column, read-out: Percentage survival at 100um, 100 uM A
[19] = 100 uM, mean of three replicates, read-out: Percentage survival at 100um, 100 uM mean
[20] = 100 uM, second replicate column, read-out: Percentage survival at 100um, 100 uM A
[21] = 100 uM, third replicate column, read-out: Percentage survival at 100um, 100 uM A

SMILES: OC1O[C@H](CSc2ccc(F)cc2)[C@@H](O)[C@H]1O (some centres unmarked) [MMV1581550]
- activity at 25 µM [1]: 91%
- activity at 25 µM [2]: 97.5%
- activity at 25 µM [3]: 90.1%
- activity at 25 µM [4]: 85.4%
- activity at 100 µM [5]: 85.6%
- activity at 100 µM [6]: 80.9%
- Percent fungal survival at 100 µM [7]: 92.1%
- activity at 100 µM [8]: 83.9%

SMILES: CC(N)C(=O)NC(CCCCN)C(=O)NC(CCCNC(=N)N)C(=O)NC(Cc1c[nH]cn1)C(=O)NC(Cc1c[nH]cn1)C(=O)NCC(=O)NC(Cc1ccc(O)cc1)C(=O)NC(CCCCN)C(=O)NC(CCCNC(=N)N)C(=O)NC(CCCCN)C(=O)NC(Cc1ccccc1)C(=O)NC(Cc1c[nH]cn1)C(N)=O (centres unmarked) [MMV1579849] (H-AKRHHGYKRKFH-NH2; configuration not given here)
- Percentage survival at 25um, 25 uM mean (25 uM, mean of three, M. mycetomatis MM55): 88.4824%
- Percentage survival at 25um, 25 um A (25 uM, replicate A, M. mycetomatis MM55): 86.8656%
- Percentage survival at 25um, 25 uM B (25 uM, replicate B, M. mycetomatis MM55): 93.5744%
- Percentage survival at 25um, 25 uM C (25 uM, replicate C, M. mycetomatis MM55): 85.0073%
- Percentage survival at 100um, 100 uM mean (100 uM, mean of three, M. mycetomatis MM55): 95.7644%
- Percentage survival at 100um, 100 uM A (first replicate column) (100 uM, replicate 1, M. mycetomatis MM55): 92.1348%
- Percentage survival at 100um, 100 uM A (second replicate column) [7]: 102.447%
- Percentage survival at 100um, 100 uM A (third replicate column) (100 uM, replicate 3, M. mycetomatis MM55): 92.7112%

SMILES: O=C(O)COc1cccc2c1CC[C@](O)(COC(=O)N(c1ccccc1)c1ccccc1)C2 [MMV1782352]
- activity at 25 µM (25 uM, mean of replicates, MM55, read-out: Percentage survival at 25um, 25 uM mean): 89.4%
- activity at 25 µM (25 uM, replicate A, MM55, read-out: Percentage survival at 25um, 25 um A): 92.5%
- activity at 25 µM (25 uM, replicate B, MM55, read-out: Percentage survival at 25um, 25 uM B): 96.3%
- activity at 25 µM (25 uM, replicate C, MM55, read-out: Percentage survival at 25um, 25 uM C): 79.5%
- activity at 100 µM (100 uM, mean of replicates, MM55, read-out: Percentage survival at 100um, 100 uM mean): 88.8%
- activity at 100 µM (100 uM, replicate 1, MM55, read-out: Percentage survival at 100um, 100 uM A): 91.1%
- activity at 100 µM (100 uM, replicate 2, MM55, read-out: Percentage survival at 100um, 100 uM A): 97.6%
- activity at 100 µM (100 uM, replicate 3, MM55, read-out: Percentage survival at 100um, 100 uM A): 77.7%

SMILES: CCCCc1ccc(S(=O)(=O)Nc2cc(C)on2)cc1 [MMV1782108]
- activity at 25 µM [9]: 86.1%
- activity at 25 µM [10]: 90.5%
- activity at 25 µM [11]: 80.2%
- activity at 25 µM [12]: 87.6%
- activity at 100 µM [13]: 82.9%
- activity at 100 µM [14]: 79.8%
- activity at 100 µM [15]: 82.7%
- activity at 100 µM [16]: 86.3%

SMILES: CC[C@@H](CO)NCCN[C@@H](CC)CO [MMV687801]
- activity at 25 µM (25 uM, mean of replicates, read-out: Percentage survival at 25um, 25 uM mean): 87.9%
- activity at 25 µM [10]: 86.9%
- activity at 25 µM [11]: 87.9%
- activity at 25 µM [12]: 88.8%
- activity at 100 µM (100 uM, mean of replicates, read-out: Percentage survival at 100um, 100 uM mean): 85.7%
- activity at 100 µM (100 uM, replicate 1, read-out: Percentage survival at 100um, 100 uM A): 96.9%
- activity at 100 µM (100 uM, replicate 2, read-out: Percentage survival at 100um, 100 uM A): 79.4%
- activity at 100 µM (100 uM, replicate 3, read-out: Percentage survival at 100um, 100 uM A): 80.8%

SMILES: O=c1oc2ccc(Br)cc2cc1CSc1ncc[nH]1 [MMV1782105]
- activity at 25 µM [17]: 79.9%
- activity at 25 µM [10]: 77.1%
- activity at 25 µM [11]: 83.9%
- activity at 25 µM [12]: 78.6%
- activity at 100 µM [18]: 62.8%
- activity at 100 µM [19]: 63.6%
- activity at 100 µM [20]: 59.4%
- activity at 100 µM [21]: 68.5%

SMILES: O=C(O)c1sccc1S(=O)(=O)n1ccc2cc(Br)ccc21 [MMV1580855]
- activity at 25 µM [17]: 98.9%
- activity at 25 µM [10]: 101%
- activity at 25 µM [11]: 108%
- activity at 25 µM [12]: 88.3%
- activity at 100 µM [19]: 97.9%
- activity at 100 µM (100 uM, replicate 1, read-out: Percentage survival at 100um, 100 uM A (first replicate column)): 128%
- Percent fungal survival at 100 µM (100 uM, replicate 2): 86.2%
- activity at 100 µM (100 uM, replicate 3, read-out: Percentage survival at 100um, 100 uM A (third replicate column)): 79.1%

SMILES: O=C(c1nc2c(C(F)(F)F)cc(C3CC3)cn2c1Cl)N1CCN([C@H]2CC[C@H](O)CC2)C(=O)C1 [MMV1634396]
- activity at 25 µM [17]: 94.9%
- activity at 25 µM [10]: 99.5%
- activity at 25 µM [11]: 104%
- activity at 25 µM [12]: 81.4%
- activity at 100 µM [18]: 92.3%
- activity at 100 µM [19]: 86.8%
- activity at 100 µM [20]: 90.6%
- activity at 100 µM [21]: 77.4%

SMILES: COc1cc(NCc2ccc3nc(N)nc(N)c3c2C)cc(OC)c1OC [MMV1580173]
- activity at 25 µM [9]: 73.6%
- activity at 25 µM [10]: 96.5%
- activity at 25 µM [11]: 46.2%
- activity at 25 µM [12]: 78.3%
- activity at 100 µM [13]: 55.4%
- activity at 100 µM [14]: 74.1%
- activity at 100 µM [15]: 4.19%
- activity at 100 µM [16]: 88%

SMILES: N=C(N)c1ccc(COc2ccc(Cl)cc2)cc1 [MMV1579844]
- activity at 25 µM [1]: 73%
- activity at 25 µM [2]: 69.6%
- activity at 25 µM [3]: 72.8%
- activity at 25 µM [4]: 76.5%
- activity at 100 µM [5]: 73.6%
- activity at 100 µM [6]: 55.9%
- Percent fungal survival at 100 µM [7]: 97.7%
- activity at 100 µM [8]: 67.2%

Reference: article PMC8815882, “Screening the pandemic response box identified benzimidazole carbamates, Olorofim and ravuconazole as promising drug candidates for the treatment of eumycetoma” (PLoS Neglected Tropical Diseases, 2022)
